Test results published in patent US20230023559A1, “ARYLMETHYLENE HETEROCYCLIC COMPOUNDS AS KV1.3 POTASSIUM SHAKER CHANNEL BLOCKERS” (D. E. Shaw Research, LLC, priority 2019, published 2023).

Biological target: T1, Kv1.3 potassium channel (Homo sapiens, UniProt P22001)
T1 construct: expressed in transfected cells
Assay: Kv1.3 potassium channel blocker activity, automated whole-cell patch clamp (Patchliner)
Format: cell-based
Settings: CHO-K1 cells stably expressing Kv1.3; whole cell current inhibition; read-out: Kv1.3_IC50
Experimental: The assay described below is used to evaluate the disclosed compound's activities as Kv1.3 potassium channel blockers.
CHO-K1 cells stably expressing Kv1.3 were grown in DMEM containing 10% heat-inactivated FBS, 1 mM Sodium Pyruvate, 2 mM L-Glutamine and G418 (500 μg/ml).
All compounds were dissolved in DMSO at 30 mM.
The currents were evoked by applying 100 ms depolarizing pulses from −90 mV (holding potential) to +40 mV were applied with 0.1 Hz frequency. […] 10 second breaks were used between pulse trains (see Table A below).
Data were sampled at 10 kHz without filtering. Passive leak currents were subtracted online using a P/4 procedure (HEKA Elektronik Dr. Schulze GmbH). […] Total compound incubation time before the next pulse train was not longer than 10 seconds. Peak current inhibition was observed during compound equilibration.

T1 sequence (P22001 whole entry): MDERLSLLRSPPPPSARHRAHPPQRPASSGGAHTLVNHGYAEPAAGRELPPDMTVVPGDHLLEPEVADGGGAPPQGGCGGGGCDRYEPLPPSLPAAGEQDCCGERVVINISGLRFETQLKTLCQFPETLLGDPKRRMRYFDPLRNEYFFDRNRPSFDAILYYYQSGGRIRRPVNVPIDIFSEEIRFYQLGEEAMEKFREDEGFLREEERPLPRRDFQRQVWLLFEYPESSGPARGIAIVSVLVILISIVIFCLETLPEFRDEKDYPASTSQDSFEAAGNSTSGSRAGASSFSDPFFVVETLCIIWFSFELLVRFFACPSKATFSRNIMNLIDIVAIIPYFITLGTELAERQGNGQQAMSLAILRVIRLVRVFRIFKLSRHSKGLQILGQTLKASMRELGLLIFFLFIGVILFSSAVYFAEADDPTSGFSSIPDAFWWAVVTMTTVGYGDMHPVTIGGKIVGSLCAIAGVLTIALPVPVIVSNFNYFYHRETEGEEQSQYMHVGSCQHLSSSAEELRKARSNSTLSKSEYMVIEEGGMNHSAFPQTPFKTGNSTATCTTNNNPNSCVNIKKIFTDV

| Compound | IC50 [µM] |
| --- | --- |
| O=C([C@H]1CCNC1)N1CCC[C@H]([C@@H](O)c2c(O)ccc(Cl)c2Cl)CC1 (single isomer, unassigned; isomer 4) [Compound 130] | < 10 |
| N#Cc1cc(O)c([C@H](N)C2CCN(C(=O)[C@H](O)CO)CC2)cc1Cl [Compound 286, 4-[(R)-amino([1-[(2R)-2,3-dihydroxypropanoyl]piperidin-4-yl])methyl]-2-chloro-5-hydroxybenzonitrile Trifluoroacetic Acid] | < 10 |
| OCC(c1cc(Cl)c(Cl)cc1O)C1CCNCC1 (stereo not shown) [Compound 5, 4,5-dichloro-2-[2-hydroxy-1-(piperidin-4-yl)ethyl]phenol] | < 10 |
| C[C@@](O)(c1cc(Cl)c(Cl)cc1O)C1CCNCC1 (single isomer, unassigned; isomer 1) [Compound 25, 4,5-dichloro-2-(1-hydroxy-1-(piperidin-4-yl)ethyl)phenol isomer 1] | < 10 |
| Cc1cc(O)c([C@H](N)C2CCN(C(=O)c3ccncc3)CC2)cc1Cl [Compound 234, 2-[(R)-amino[1-(pyridine-4-carbonyl)piperidin-4-yl]methyl]-4-chloro-5-methylphenol trifluoroacetic acid] | < 0.5 |
| NC(c1cc(Cl)c(Cl)cc1O)C1CCN(Cc2ccccc2)CC1 (stereo not shown) [Compound 41, 2-(amino(1-benzylpiperidin-4-yl)methyl)-4,5-dichlorophenol Trifluoroacetic Acid] | < 10 |
| Cc1[nH]c(=O)ccc1C(=O)N1CCC([C@@H](N)c2cc(Cl)c(Cl)cc2O)CC1 [Compound 230, (R)-5-(4-(amino(4,5-dichloro-2-hydroxyphenyl)methyl)piperidine-1-carbonyl)-6-methylpyridin-2(1H)-one] | < 10 |
| COCCN1CCC(C(N)c2cc(Cl)c(Cl)cc2O)CC1 (stereo not shown) [Compound 64, 2-(amino(1-(2-methoxyethyl)piperidin-4-yl)methyl)-4,5-dichlorophenol] | < 10 |
| CC(=O)NC(c1cc(Cl)c(Cl)cc1O)C1CCN(C(=O)[C@@H]2CCNC2)CC1 (stereo partly drawn) [Compound 108, N-((4,5-dichloro-2-hydroxyphenyl)(1-((R)-pyrrolidine-3-carbonyl)piperidin-4-yl)methyl)acetamide Trifluoroacetic Acid] | < 10 |
| CC(=O)N[C@@H](c1cc(Cl)c(Cl)cc1O)C1CCNCC1 (single isomer, unassigned) [Compound 17] | < 30 |
| O=C([C@H]1CCNC1)N1CCC[C@@H]([C@@H](O)c2c(O)ccc(Cl)c2Cl)CC1 (single isomer, unassigned; isomer 3) [Compound 323] | < 10 |
| N[C@H](c1cc(Cl)c(Cl)cc1O)C1CCNCC1 (single isomer, unassigned) [Compound 15, Trifluoroacetic Acid] | < 10 |
| N[C@H](c1cc(Cl)c(Cl)cc1O)C1CCN(C(=O)[C@@H]2CCNC2)CC1 (single isomer, unassigned) [Compound 84] | < 10 |
| NC(c1cc(Cl)c(Cl)cc1O)[C@@H]1C[C@@H]2CN(C(=O)[C@H](O)CO)C[C@@H]2C1 (stereo partly drawn) [Compound 225, (2R)-1-((3aR,5R,6aS)-5-(amino(4,5-dichloro-2-hydroxyphenyl)methyl)hexahydrocyclopenta[c]pyrrol-2 (1H)-yl)-2,3-dihydroxypropan-1-one] | < 10 |
| CC(O)(c1cc(Cl)c(Cl)cc1O)C1CCNCC1 (stereo not shown) [Compound 3, 4,5-dichloro-2-[1-hydroxy-1-(piperidin-4-yl)ethyl]phenol] | < 10 |
| O=C([C@H]1CCNC1)N1CCC[C@@H]([C@H](O)c2c(O)ccc(Cl)c2Cl)CC1 (single isomer, unassigned; isomer 1) [Compound 322] | < 10 |
| CC(C)C[C@H](N)C(=O)N1CCC([C@@H](N)c2cc(Cl)c(Cl)cc2O)CC1 [Compound 93, (S)-2-amino-1-(4-((R)-amino (4,5-dichloro-2-hydroxyphenyl)methyl)piperidin-1-yl)-4-methylpentan-1-one] | < 10 |
| CN1CC(C(=O)N2CCC([C@@H](N)c3cc(Cl)c(Cl)cc3O)CC2)OCC1=O (stereo partly drawn) [Compound 268, 6-[4-[(R)-amino(4,5-dichloro-2-hydroxyphenyl)methyl]piperidine-1-carbonyl]-4-methylmorpholin-3-one trifluoroacetic acid] | < 0.5 |
| Cc1cc(O)c([C@H](N)C2CCN(C(=O)c3ccc4c(c3)OCC(=O)N4)CC2)cc1Cl [Compound 265, 7-[4-[(R)-amino(5-chloro-2-hydroxy-4-methylphenyl)methyl]piperidine-1-carbonyl]-2,4-dihydro-1,4-benzoxazin-3-one trifluoroacetic acid] | < 0.5 |

| Compound | IC50 [µM] |
| --- | --- |
| N[C@@H](c1cc(Cl)c(Cl)cc1O)C1CCN(C(=O)C2CNCC2(F)F)CC1 (stereo partly drawn) [Compound 113, (4-((R)-amino(4,5-dichloro-2-hydroxyphenyl)methyl)piperidin-1-yl)(4,4-difluoropyrrolidin-3-yl)methanone] | < 10 |
| Cc1cc(O)c([C@H](N)C2CCN(C(=O)c3ccc4c(c3)CC(=O)N4)CC2)cc1Cl [Compound 267, 5-[4-[(R)-amino (5-chloro-2-hydroxy-4-methylphenyl)methyl]piperidine-1-carbonyl]-1,3-dihydroindol-2-one trifluoroacetic acid] | < 0.5 |
| NC(c1cc(Cl)c(Cl)cc1O)C1CCN(C(=O)NC2CC2)CC1 (stereo not shown) [Compound 57, 4-(amino(4,5-dichloro-2-hydroxyphenyl)methyl)-N-cyclopropylpiperidine-1-carboxamide] | < 10 |
| NC(=O)C(c1cc(Cl)c(Cl)cc1O)C1CCNCC1 (stereo not shown) [Compound 18, 2-(4,5-dichloro-2-hydroxyphenyl)-2-(piperidin-4-yl)acetamide] | < 10 |
| CC1(C)C[C@H]([C@H](N)c2cc(Cl)c(Cl)cc2O)CCN1 (single isomer, unassigned; diastereoisomer 2) [Compound 73, 2-(amino(2,2-dimethylpiperidin-4-yl)methyl)-4,5-dichlorophenol Trifluoroacetic Acid Diastereoisomer 2] | < 10 |
| CN1CCC(C(NC(=O)C(F)(F)F)c2cc(Cl)c(Cl)cc2O)CC1 (stereo not shown) [Compound 14, N-[(4,5-dichloro-2-hydroxyphenyl)(1-methylpiperidin-4-yl)methyl]-2,2,2-trifluoroacetamide] | < 10 |
| CC[C@H](N)C(=O)N1CCC([C@@H](N)c2cc(Cl)c(Cl)cc2O)CC1 [Compound 91, (S)-2-amino-1-(4-((R)-amino(4,5-dichloro-2-hydroxyphenyl)methyl)piperidin-1-yl)butan-1-one trifluoroacetic acid] | < 0.5 |
| CS(=O)(=O)NC(c1cc(Cl)c(Cl)cc1O)C1CCNCC1 (stereo not shown) [Compound 12, N-((4,5-dichloro-2-hydroxyphenyl)(piperidin-4-yl)methyl)methanesulfonamide] | < 10 |
| NCC(c1cc(Cl)c(Cl)cc1O)C1CCNCC1 (stereo not shown) [Compound 8, 2-[2-amino-1-(piperidin-4-yl)ethyl]-4,5-dichlorophenol] | < 10 |
| CO[C@H](CO)C(=O)N1CCC([C@@H](N)c2cc(Cl)c(C)cc2O)CC1 [Compound 250, (2R)-1-[4-[(R)-amino(5-chloro-2-hydroxy-4-methylphenyl)methyl]piperidin-1-yl]-3-hydroxy-2-methoxypropan-1-one trifluoroacetic acid] | < 0.5 |
| CNC(c1cc(Cl)c(Cl)cc1O)C1CCN(C(=O)C(O)CO)CC1 (stereo not shown) [Compound 184, 1-[4-[(4,5-dichloro-2-hydroxyphenyl)(methylamino)methyl]piperidin-1-yl]-2,3-dihydroxypropan-1-one Trifluoroacetic Acid] | < 10 |
| CN1C[C@@H](C(=O)N2CCC([C@@H](N)c3cc(Cl)c(Cl)cc3O)CC2)OCC1=O (single isomer, unassigned; isomer 2) [Compound 278] | < 10 |
| Cc1cc(O)c([C@H](N)C2CCN(C(=O)c3ccc4[nH]c(=O)oc4c3)CC2)cc1Cl [Compound 271, 6-[4-[(R)-amino(5-chloro-2-hydroxy-4-methylphenyl)methyl]piperidine-1-carbonyl]-3H-1,3-benzoxazol-2-one] | < 10 |
| CC(C)C[C@@H](N)C(=O)N1CCC([C@@H](N)c2cc(Cl)c(Cl)cc2O)CC1 [Compound 94, (R)-2-amino-1-(4-((R)-amino(4,5-dichloro-2-hydroxyphenyl)methyl)piperidin-1-yl)-4-methylpentan-1-one trifluoroacetic acid] | < 0.5 |
| N[C@@H](c1cc(Cl)c(Cl)cc1O)C1CCN(C(=O)c2c[nH]c(=O)[nH]2)CC1 [Compound 254, 4-[4-[(R)-amino(4,5-dichloro-2-hydroxyphenyl)methyl]piperidine-1-carbonyl]-1,3-dihydroimidazol-2-one trifluoro-acetic acid] | < 0.5 |
| Cc1cc(O)c([C@H](N)C2CCN(C(=O)c3ccc4c(c3)NC(=O)C4)CC2)cc1Cl [Compound 263, 6-[4-[(R)-amino (5-chloro-2-hydroxy-4-methylphenyl)methyl]piperidine-1-carbonyl]-1,3-dihydroindol-2-one trifluoroacetic acid] | < 0.5 |
| O=C([C@@H]1CCNC1)N1CCC([C@H](O)c2c(O)ccc(Cl)c2Cl)CC1 (single isomer, unassigned) [Compound 321, Trifluoroacetic Acid] | < 10 |
| Cc1cc(O)c([C@H](N)C2CCN(C(=O)c3ccc4c(c3)NC(=O)CO4)CC2)cc1Cl [Compound 269, 6-[4-[(R)-amino (5-chloro-2-hydroxy-4-methylphenyl)methyl]piperidine-1-carbonyl]-2,4-dihydro-1,4-benzoxazin-3-one] | < 10 |
